According to patent publication US8119614B2, “Substitution derivatives of N6-benzyladenosine, methods of their preparation, their use for preparation of drugs, cosmetic preparations and growth regulators, pharmaceutical preparations, cosmetic preparations and growth regulators containing these compounds” (Ustav Experimentalni Botaniky Akademie Ved Ceske Republiky, priority 2002, dated 2012):
Like-named read-outs stand apart in the source and are kept apart here.

How the values were obtained:
[1] = test system: human diploid fibroblasts (HCA cells); assay: Inhibition of senescence of mammal cells: β-galactosidase staining of senescent cells; type: cell-based; conditions: for Senescent cells (%) HCA25: passage 25; for Senescent cells (%) HCA45: passage 45; for Senescent cells (%) HCA80: passage 80
Method: In this example, human diploid fibroblasts (HCA cells with different levels of passage: passage 25—labelling HCA25; passage 45—labelling HCA45; passage 80—labelling HCA80) were used for studying β-galactosidase activity. Medium used for cells cultivation was removed, cells were washed twice with PBS and fixed in 2-3 ml of fixation agent consisting of 2% of formaldehyde and 0.2% of flutaraldehyde in PBS. Cells were incubated at room temperature for 5 min and subsequently washed twice with PBS. Cells were then incubated at 37° C. (without CO2) for 1 to 16 hours in 2-3 ml of solution comprising potassium ferricyanide (5 mM), potassium ferrocyanide (5 mM), MgCl2 (2 mM), X-gal (5-bromo-4-chloro-3-indolyl-β-D-galactopyranoside) (1 mg/ml) in citrate/phosphate buffer, pH 6.0. […] In this experiment only senescent cells were labelled due to the effect of β-galactosidase on the substrate.

[2] = test system: HOS; assay: In vitro cytotoxic activity, Calcein AM assay, HOS; type: cell-based; conditions: 72 hours
[3] = test system: human erythroleukaemia K562; assay: In vitro cytotoxic activity, Calcein AM assay, K-562; type: cell-based; conditions: read-out: IC 50 K-562
How it was run: (§1)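 Cells seeded at 10^4 per well, pre-incubated 24 h, then exposed to six 4-fold dilutions (top well concentration usually 166.7 μM, duplicates) for 72 h at 37 °C. Viability read by Calcein AM fluorescence after 1 h; GI50 taken from dose-response curves relative to control wells.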

[4] = test system: breast carcinoma cell lines MCF-7; assay: In vitro cytotoxic activity, Calcein AM assay, MCF7; type: cell-based, human; conditions: read-out: IC 50 MCF7
How it was run: as §1

[5] = test system: mouse fibroblasts NIH3T3; assay: In vitro cytotoxic activity, Calcein AM assay, NIH-3T3; type: cell-based; conditions: read-out: IC 50 NIH-3T3
How it was run: as §1

[6] = test system: Human T-lymphoblastic leukemia cell line CEM; assay: In vitro cytotoxic activity, Calcein AM assay, CEM; type: cell-based; conditions: 72 hours
How it was run: as §1

[7] = test system: promyelocytic HL-60; assay: In vitro cytotoxic activity, Calcein AM assay, HL60; type: cell-based, human; conditions: read-out: IC 50 HL60
How it was run: as §1

[8] = test system: Triticum aestivum cv. Hereward; assay: Senescence inhibition on winter wheat leaf segments (chlorophyll retention); type: in vivo; conditions: for Concentration with highest activity: chlorophyll retention in excised wheat leaf tips, 96 h dark; for Activity (%) [10^−4 mol · l^−1 BAP = 100%]: chlorophyll retention, at concentration with highest activity
How it was run: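 Tip segments of the first leaf from 7-day wheat seedlings held, basal ends down, in cytokinin solutions (10^−8M to 10^−4M) for 96 h at 25° C in darkness. Chlorophyll extracted in 80% ethanol at 80° C, read at 665 nm; activity at best concentration given relative to 10^−4 M BAP (100%), means of five replicates.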

[9] = test system: tobacco callus Nicotiana tabacum L. cv. Wisconsin 38; assay: Growth of cytokinin-dependent tobacco callus; type: cell-based; conditions: for Activity (%) [10^−5 mol · l^−1 BAP = 100%]: callus growth, at concentration with highest activity; for Concentration with highest activity: fresh callus weight after four weeks
Method: Cytokinin-dependent tobacco callus Nicotiana tabacum L. cv. Wisconsin 38 was maintained at 25° C. in darkness on modified Murashige-Skoog medium, containing per 1 liter: 4 μmol nicotinic acid, 2.4 μmol pyridoxine hydrochloride, 1.2 μmol thiamine, 26.6 μmol glycine, 1.37 μmol glutamine, 1.8 μmol myo-inositol, 30 g of sucrose, 8 g of agar, 5.37 μmol α-naphtylacetic acid (NAA) and 0.5 μmol benzylaminopurine (BAP). Subcultivation was carried out every three weeks. Fourteen days before the bioassay, the callus tissue was transferred to the media without 6-benzylaminopurine (BAP). Biological activity was determined from the increase in fresh callus weight after four weeks of cultivation. Five replicates were prepared for each cytokinin concentration and the entire test was repeated twice. From the obtained data, the concentration with highest activity was selected for each compound tested. Relative activity of the compound at this concentration was calculated (Tab. 6). […] The cytokinins to be tested were dissolved in dimethylsulfoxide (DMSO) and the solution brought up to 10^−3M with distilled water. This stock was further diluted in the respective media used for the biotest to concentrations ranging from 10^−8M to 10^−4M.

[10] = test system: Amaranthus caudatus cotyledon/hypocotyl explants; assay: Amaranthus bioassay (betacyanin content); type: in vivo; conditions: for Concentration with highest activity: 48 h dark; for Activity (%) [10^−5 mol · l^−1 BAP = 100%]: at concentration with highest activity
How it was run: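 Surface-sterilised Amaranthus caudatus var. atropurpurea seeds were germinated 72 h at 25° C. in darkness, then de-rooted. Cotyledon/hypocotyl explants (20 per dish) were incubated under green safe light on filter paper with 1 ml medium of 10 μmol NA2HPO4-KH2PO4, pH 6.8, 5 μmol tyrosine and cytokinin (10^-8M to 10^-4M) for 48 h at 25° C. in darkness. Betacyanin was extracted in […] acetic acid and measured by absorbance at 537 nm and 620 nm.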

[11] = test system: human malignant melanoma cells G361; assay: In vitro cytotoxic activity, Calcein AM assay, G-361; type: cell-based; conditions: read-out: IC 50 G-361
Description: One of the parameters used, as the basis for cytotoxicity assays, is the metabolic activity of viable cells. For example, a microtiter assay, which uses the Calcein AM, is now widely used to quantitate cell proliferation and cytotoxicity. For instance, this assay is used in drug screening programs and in chemosensitivity testing. Because only metabolically active cells cleave Calcein AM, these assays detect viable cells exclusively. The quantity of reduced Calcein AM corresponds to the number of vital cells in the culture.
Human T-lymphoblastic leukemia cell line CEM; promyelocytic HL-60 and monocytic U937 leukemias; breast carcinoma cell lines MCF-7; cervical carcinoma cells HELA; mouse fibroblasts NIH3T3; human erythroleukaemia K562 and human malignant melanoma cells G361 were used for routine screening of compounds. The cells were maintained in Nunc/Corning 80 cm^2 plastic tissue culture flasks and cultured in cell culture medium (DMEM with 5 g/l glucose, 2 mM glutamine, 100 U/ml penicillin, 100 μg/ml streptomycin, 10% fetal calf serum and sodium bicarbonate).
The cell suspensions that were prepared and diluted according to the particular cell type and the expected target cell density (10^4 cells per well based on cell growth characteristics) were added by pipette (80 μl) into 96/well microtiter plates. Inoculates were allowed a pre-incubation period of 24 hours at 37° C. and 5% CO2 for stabilisation. Four-fold dilutions of the intended test concentration were added at time zero in 20 μl aliquots to the microtiter plate wells. Usually, test compound was evaluated at six 4-fold dilutions. In routine testing, the highest well concentration was 166.7 μM, but it can be the matter of change dependent on the agent. All drug concentrations were examined in duplicates. Incubations of cells with the test compounds lasted for 72 hours at 37° C., in 5% CO2 atmosphere and 100% humidity. At the end of incubation period, the cells were assayed by using the Calcein AM. Ten microliters of the stock solution were pipetted into each well and incubated further for 1 hours. Fluorescence (FD) was measured with the Labsystem FIA Reader Fluoroscan Ascent (UK). The tumour cell survival (GI50) was calculated using the following equitation: GI50=(FDdrug exposed well/mean FDcontrol wells)×100%. The GI50 value, the drug concentration lethal to 50% of the tumour cells, was calculated from the obtained dose response curves (FIG. 3).

Compound | IC50 [2] | IC50 ([3]; 72 hours) | IC50 ([4]; 72 hours) | IC50 ([5]; 72 hours) | IC50 [6] | IC50 ([7]; 72 hours) | IC50 ([11]; 72 hours) | further results
COc1cccc(CNc2ncnc3c2ncn3[C@@H]2O[C@H](CO)[C@@H](O)[C@H]2O)c1OC [2,3-dimethoxybenzylamino, 6-(2,3-dimethoxybenzylamino)purine riboside] | > 167 µM | > 167 µM | > 167 µM | > 167 µM | > 167 µM | 109 µM |  | Senescent cells (%) HCA25 [1]: 4%; Senescent cells (%) HCA45 [1]: 5%; Senescent cells (%) HCA80 [1]: 18%; Concentration with highest activity [8]: 10^−4 mol · l^−1; Activity (%) [10^−4 mol · l^−1 BAP = 100%] [8]: 106 ± 17%; Activity (%) [10^−5 mol · l^−1 BAP = 100%] [9]: 5 ± 2%; Concentration with highest activity [9]: 10^−6 mol · l^−1; Concentration with highest activity [10]: 10^−4 mol · l^−1; Activity (%) [10^−5 mol · l^−1 BAP = 100%] [10]: 21 ± 7%
Nc1cc(CNc2ncnc3c2ncn3[C@@H]2O[C@H](CO)[C@@H](O)[C@H]2O)ccc1Cl [3-amino-4-chlorobenzylamino, 6-(3-amino-4-chlorobenzylamino)purine riboside] |  |  |  |  |  |  |  | Senescent cells (%) HCA25 [1]: 4%; Senescent cells (%) HCA45 [1]: 6%; Senescent cells (%) HCA80 [1]: 22%
OC[C@H]1O[C@@H](n2cnc3c(Nc4cccc(Cl)c4)ncnc32)[C@H](O)[C@@H]1O [3-chloroanilino] |  |  |  |  |  |  |  | Senescent cells (%) HCA25 [1]: 4%; Senescent cells (%) HCA45 [1]: 4%; Senescent cells (%) HCA80 [1]: 27%
COc1ccc(CNc2ncnc3c2ncn3[C@@H]2O[C@H](CO)[C@@H](O)[C@H]2O)cc1 [4-methoxybenzylamino, 6-(4-methoxybenzylamino)purine riboside] | > 167 µM | > 167 µM | > 167 µM | > 167 µM | > 167 µM | > 167 µM | 115 µM | Concentration with highest activity [8]: 10^−4 mol · l^−1; Activity (%) [10^−4 mol · l^−1 BAP = 100%] [8]: 110 ± 9%; Activity (%) [10^−5 mol · l^−1 BAP = 100%] [9]: 2 ± 2%; Concentration with highest activity [9]: 10^−6 mol · l^−1; Concentration with highest activity [10]: 10^−4 mol · l^−1; Activity (%) [10^−5 mol · l^−1 BAP = 100%] [10]: 17 ± 8%
c1coc(CNc2ncnc3[nH]cnc23)c1 [Kinetin, reference compound] |  |  |  |  |  |  |  | Senescent cells (%) HCA25 [1]: 3%; Senescent cells (%) HCA45 [1]: 5%; Senescent cells (%) HCA80 [1]: 25%
OC[C@H]1O[C@@H](n2cnc3c(NCc4ccc(O)cc4)nc(Cl)nc32)[C@H](O)[C@@H]1O [R2 = Cl, 4-hydroxybenzylamino] | > 167 µM | > 167 µM | > 167 µM | > 167 µM | 39.7 µM | 9.5 µM | > 167 µM | 
COc1ccc(CNc2nc(Cl)nc3c2ncn3[C@@H]2O[C@H](CO)[C@@H](O)[C@H]2O)cc1 [R2 = Cl, 4-methoxyxybenzylamino] | > 167 µM | > 167 µM | > 167 µM | > 167 µM | > 167 µM | > 167 µM | 105 µM | 
COc1ccccc1CNc1nc(N)nc2c1ncn2[C@@H]1O[C@H](CO)[C@@H](O)[C@H]1O [R2 = NH2,2-methoxyxybenzylamino, 2-amino-6-(2-methoxybenzylamino)purine riboside] | 27.8 µM | 34.9 µM | > 167 µM | > 167 µM | 12.8 µM | 7.8 µM | > 167 µM | 
Nc1nc(NCc2cccc(F)c2)c2ncn([C@@H]3O[C@H](CO)[C@@H](O)[C@H]3O)c2n1 [R2 = NH2,3-fluorobenzylamino] | > 167 µM | 12 µM | 36 µM | > 167 µM | 21 µM | 3.4 µM | 21 µM | 
COc1cccc(CNc2nc(N)nc3c2ncn3[C@@H]2O[C@H](CO)[C@@H](O)[C@H]2O)c1 [R2 = NH2,3-methoxyxybenzylamino] | > 167 µM | > 167 µM | > 167 µM | > 167 µM | 13.8 µM | 8.9 µM | > 167 µM | 
COc1ccccc1CNc1nc(SC)nc2c1ncn2[C@@H]1O[C@H](CO)[C@@H](O)[C@H]1O [R2 = SCH3,2-methoxyxybenzylamino] | 34.3 µM | 34.8 µM | > 167 µM | > 167 µM | 11.5 µM | 10.2 µM | > 167 µM | 
CSc1nc(NCc2cccc(F)c2)c2ncn([C@@H]3O[C@H](CO)[C@@H](O)[C@H]3O)c2n1 [R2 = SCH3,3-fluorobenzylamino] | > 167 µM | 7.9 µM | 31 µM | > 167 µM | 8.5 µM | 5.2 µM | 28 µM | 
COc1cccc(CNc2nc(SC)nc3c2ncn3[C@@H]2O[C@H](CO)[C@@H](O)[C@H]2O)c1 [R2 = SCH3,3-methoxyxybenzylamino] | > 167 µM | > 167 µM | > 167 µM | > 167 µM | 16.5 µM | 8.8 µM | > 167 µM | 
Nc1ncnc2c1ncn2[C@@H]1O[C@H](CO)[C@@H](O)[C@H]1O [adenosine] |  |  |  |  |  |  |  | IC50 ([2]; Homo sapiens, HOS): > 167 µM; IC50 ([3]; Homo sapiens, K562, 72 hours): > 167 µM; IC50 ([4]; Homo sapiens, MCF7, 72 hours): > 167 µM; IC50 ([5]; Mus musculus, NIH3T3, 72 hours): > 167 µM; IC50 ([11]; Homo sapiens, G-361, 72 hours): > 167 µM; IC50 ([6]; Homo sapiens): > 167 µM; IC50 ([7]; Homo sapiens, HL-60, 72 hours): > 167 µM
C/C(=C\CNc1ncnc2c1ncn2[C@@H]1O[C@H](CO)[C@@H](O)[C@H]1O)CO [zeatin riboside, reference compound] | > 167 µM | > 167 µM | > 167 µM | > 167 µM | > 167 µM | > 167 µM | > 167 µM | 
